Reference: the supplement of paper PMC10307832

Legend:
Assay in all cases: relative viability (nuclei count vs DMSO), 5 days (fraction); higher = more cells survive
[1] = compound: C1=CC2=C(C=CC(=C2)C=C3C(=O)NC(=NCC4=CC=CS4)S3)N=C1 [RO-3306] + CCNC(=O)c1noc(-c2cc(C(C)C)c(O)cc2O)c1-c1ccc(CN2CCOCC2)cc1 [Luminespib] (partner 0.01 µM)
In short: (§1)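 Nuclei were stained with Hoechst during a one-step fixation (final 0.05% Triton X-100, 1% formaldehyde, 1 ug/ml Hoechst) carried out 5 days after dosing, then counted on 4× images. The cells, lung cancer lines in 1536-well plates, had been dosed by pin tool the day after seeding with one drug alone or a fixed anchor-drug dose plus five library-drug doses (not always all listed) in √10 steps. Relative viability is the nuclei count in treated wells divided by that in vehicle wells, and each value is the median of duplicate plates.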

[2] = compound: C1=CC2=C(C=CC(=C2)C=C3C(=O)NC(=NCC4=CC=CS4)S3)N=C1 [RO-3306] + Nc1nc2[nH]cc(CCc3ccc(C(=O)N[C@@H](CCC(=O)O)C(=O)O)cc3)c2c(=O)[nH]1 [Pemetrexed] (partner 0.2 µM)
In short: as §1

[3] = compound: O=S(=O)(c1ccccc1)N(CC(F)(F)F)c1ccc(C(O)(C(F)(F)F)C(F)(F)F)cc1 + CC(=O)c1c(C)c2cnc(Nc3ccc(N4CCNCC4)cn3)nc2n(C2CCCC2)c1=O [Palbociclib] (partner 0.5 µM)
In short: as §1

[4] = compound: O=S(=O)(c1ccccc1)N(CC(F)(F)F)c1ccc(C(O)(C(F)(F)F)C(F)(F)F)cc1 + CS(=O)(=O)N1CCN(Cc2cc3nc(-c4cccc5[nH]ncc45)nc(N4CCOCC4)c3s2)CC1 [Pictilisib] (partner 1 µM)
In short: as §1

| Cell Line | relative viability ([1]; first compound 0.01 µM) | relative viability ([1]; first compound 0.03162 µM) | relative viability ([1]; first compound 0.1 µM) | relative viability ([1]; first compound 0.3162 µM) | relative viability ([1]; first compound 1 µM) | relative viability ([2]; first compound 0.01 µM) | relative viability ([2]; first compound 0.03162 µM) | relative viability ([2]; first compound 0.1 µM) | relative viability ([2]; first compound 0.3162 µM) | relative viability ([2]; first compound 1 µM) | relative viability ([3]; first compound 0.8 µM) | relative viability ([3]; first compound 2.53 µM) | relative viability ([3]; first compound 8 µM) | relative viability ([4]; first compound 0.8 µM) | relative viability ([4]; first compound 2.53 µM) | relative viability ([4]; first compound 8 µM) |
| --- | --- | --- | --- | --- | --- | --- | --- | --- | --- | --- | --- | --- | --- | --- | --- | --- |
| NCI-H650 | 0.716 | 0.755 | 0.813 | 0.798 | 0.789 | 0.958 | 0.883 | 0.868 | 0.986 | 0.983 | 0.322 | 0.329 | 0.27 | 0.913 | 0.842 | 0.885 |
| NCI-H661 | 0.869 | 1.02 | 0.934 | 0.953 | 0.936 | 0.966 | 0.954 | 0.929 | 0.926 | 0.963 | 0.426 | 0.386 | 0.396 | 0.389 | 0.398 | 0.427 |
| NCI-H838 | 0.523 | 0.274 | 0.24 | 0.316 | 0.221 | 0.256 | 0.252 | 0.252 | 0.251 | 0.282 | 0.241 | 0.244 | 0.276 | 0.46 | 0.403 | 0.642 |
| NCI-H1355 | 0.888 | – | 0.68 | 0.84 | 0.68 | 1.15 | 0.976 | 0.961 | 0.97 | 1.05 | 0.377 | 0.42 | 0.359 | 0.415 | 0.389 | 0.491 |
| NCI-H1395 | 0.915 | 0.878 | 0.622 | 0.653 | 0.519 | 0.678 | 0.751 | 0.728 | 0.726 | 0.549 | 0.642 | 0.627 | 0.603 | 0.569 | 0.562 | 0.635 |
| NCI-H1437 | 1.17 | 1.02 | 1.09 | 1.11 | 1.17 | 0.343 | 0.311 | 0.374 | 0.344 | 0.37 | 0.308 | 0.268 | 0.304 | 0.374 | 0.327 | 0.412 |
| NCI-H1650 | 0.183 | 0.217 | 0.2 | 0.227 | 0.224 | 0.517 | 0.351 | 0.324 | 0.335 | 0.38 | 0.308 | 0.276 | 0.367 | 0.69 | 0.588 | 0.534 |
| NCI-H1651 | 1.21 | 0.873 | 0.857 | 1.03 | 0.802 | 0.644 | 0.569 | 0.554 | 0.556 | 0.54 | 0.555 | 0.503 | 0.5 | 0.681 | 0.598 | 0.598 |
| NCI-H1666 | 0.929 | 0.883 | 1.05 | 1.05 | 0.891 | 0.94 | 0.798 | 0.819 | 0.836 | 0.868 | 0.645 | 0.657 | 0.601 | 0.434 | 0.418 | 0.398 |
| NCI-H1734 | 0.168 | 0.172 | 0.205 | 0.195 | 0.171 | 0.394 | 0.41 | 0.372 | 0.414 | 0.432 | 0.348 | 0.363 | 0.326 | 0.549 | 0.48 | 0.429 |
| NCI-H1755 | 0.435 | 0.3 | 0.275 | 0.269 | 0.484 | 0.656 | 0.505 | 0.446 | 0.426 | 0.404 | 0.471 | 0.46 | 0.464 | 0.376 | 0.361 | 0.382 |
| NCI-H1792 | 0.587 | – | 0.568 | 0.349 | 0.341 | 1.11 | – | 0.649 | 0.757 | 0.749 | 0.614 | 0.549 | 0.453 | 0.191 | 0.184 | 0.165 |
| NCI-H1793 | 0.129 | 0.162 | 0.195 | 0.205 | 0.191 | 0.971 | – | 0.771 | 0.901 | 0.667 | 0.258 | 0.22 | 0.258 | 0.366 | 0.344 | 0.277 |
| NCI-H1915 | 0.975 | 0.493 | 0.879 | 0.805 | 0.749 | 0.609 | 0.495 | 0.52 | 0.49 | 0.572 | 0.46 | 0.577 | 0.525 | 0.965 | 1.1 | 1.13 |
| NCI-H1944 | 0.83 | 0.667 | 0.681 | 0.62 | 0.678 | 0.794 | 0.63 | 0.663 | 0.611 | 0.671 | 0.342 | 0.303 | 0.332 | 0.3 | 0.341 | 0.357 |
| NCI-H1975 | 0.443 | 0.142 | 0.242 | 0.175 | 0.294 | 0.28 | 0.269 | 0.303 | 0.321 | 0.302 | 0.71 | 0.567 | 0.644 | 0.28 | 0.264 | 0.249 |
| NCI-H1993 | 0.792 | 0.697 | 0.913 | 0.799 | 0.746 | 0.627 | 0.5 | 0.624 | 0.573 | 0.539 | 0.57 | 0.511 | 0.594 | 0.772 | 0.782 | 1.07 |

| Cell Line | relative viability ([1]; first compound 0.01 µM) | relative viability ([1]; first compound 0.03162 µM) | relative viability ([1]; first compound 0.1 µM) | relative viability ([1]; first compound 0.3162 µM) | relative viability ([1]; first compound 1 µM) | relative viability ([2]; first compound 0.01 µM) | relative viability ([2]; first compound 0.03162 µM) | relative viability ([2]; first compound 0.1 µM) | relative viability ([2]; first compound 0.3162 µM) | relative viability ([2]; first compound 1 µM) | relative viability ([3]; first compound 0.8 µM) | relative viability ([3]; first compound 2.53 µM) | relative viability ([3]; first compound 8 µM) | relative viability ([4]; first compound 0.8 µM) | relative viability ([4]; first compound 2.53 µM) | relative viability ([4]; first compound 8 µM) |
| --- | --- | --- | --- | --- | --- | --- | --- | --- | --- | --- | --- | --- | --- | --- | --- | --- |
| NCI-H2009 | 1.1 | 0.979 | 1.07 | 0.992 | 0.976 | 1.11 | 1.12 | 1.05 | 0.988 | 1.01 | 0.174 | 0.238 | 0.223 | 0.814 | 0.751 | 0.783 |
| NCI-H2023 | 0.681 | 0.723 | 0.643 | 0.534 | 0.396 | 0.233 | 0.23 | 0.209 | 0.274 | 0.262 | 0.335 | 0.328 | 0.27 | 0.183 | 0.221 | 0.193 |
| NCI-H2085 | 0.377 | 0.499 | 0.517 | 0.437 | 0.46 | 0.958 | 0.859 | 0.803 | 0.907 | 0.962 | 0.432 | 0.431 | 0.413 | 0.428 | 0.543 | 0.455 |
| NCI-H2087 | 0.196 | 0.175 | 0.149 | 0.23 | 0.17 | 0.678 | 0.677 | 0.636 | 0.652 | 0.648 | 0.253 | 0.183 | 0.261 | 0.868 | 0.993 | 0.848 |
| NCI-H2126 | 0.867 | 0.858 | 0.895 | 1 | 0.949 | 0.673 | 0.671 | 0.707 | 0.735 | 0.676 | 0.344 | 0.345 | 0.355 | 0.489 | 0.513 | 0.5 |
| NCI-H2170 | 0.485 | 0.803 | 0.419 | 0.669 | 0.639 | 0.314 | 0.311 | 0.241 | 0.251 | 0.271 | 0.433 | 0.353 | 0.356 | 0.305 | 0.291 | 0.307 |
| NCI-H2228 | 0.2 | 0.148 | 0.147 | 0.14 | 0.255 | 0.356 | 0.36 | 0.347 | 0.355 | 0.265 | 0.989 | 0.639 | 0.722 | 0.414 | 0.366 | 0.26 |
| NCI-H2347 | 1.03 | 0.43 | 0.825 | 0.253 | 0.575 | 0.44 | 0.37 | 0.428 | 0.433 | 0.437 | 0.42 | 0.374 | 0.395 | 0.516 | 0.597 | 0.81 |
| NCI-H2405 | 0.753 | 0.705 | 0.849 | 0.607 | 0.7 | 0.913 | 1.02 | 1.01 | 0.971 | 0.907 | 0.554 | 0.506 | 0.55 | 0.471 | 0.455 | 0.418 |
| NCI-H3122 | 0.113 | 0.108 | 0.0505 | 0.101 | 0.122 | 0.203 | 0.193 | 0.456 | 0.195 | 0.197 | 0.143 | 0.148 | 0.202 | 0.477 | 0.447 | 0.416 |
| PC-3 [JPC-3] | 0.642 | 0.638 | 0.778 | 0.667 | 0.864 | 0.783 | 0.753 | 1.01 | 1.07 | 0.37 | – | 0.381 | 0.532 | 0.737 | 0.829 | 0.697 |
| PC-14 | 0.251 | 0.147 | 0.161 | 0.139 | 0.15 | 0.135 | 0.162 | 0.137 | 0.133 | 0.176 | 0.345 | 0.254 | 0.198 | 0.743 | 0.557 | 0.339 |
| RERF-LC-KJ | 1.15 | 1.41 | 1.17 | 1.45 | 0.99 | 0.515 | 0.48 | 0.493 | 0.459 | 0.449 | 1.1 | 0.909 | 0.905 | 0.557 | 0.453 | 0.5 |
| SK-LU-1 | 0.184 | 0.194 | 0.179 | 0.202 | 0.166 | 1.03 | 0.918 | 0.963 | 0.949 | 0.897 | 0.358 | 0.423 | 0.376 | 0.531 | 0.454 | 0.594 |
| SK-MES-1 | 0.708 | 0.973 | 0.705 | 0.605 | 0.968 | 1.14 | 1 | 0.981 | 0.968 | 0.938 | 0.351 | 0.354 | 0.277 | 0.25 | 0.235 | 0.271 |
| SW 1573 | 0.205 | 0.218 | 0.198 | 0.302 | 0.217 | 0.893 | 0.744 | 0.697 | 0.9 | 0.67 | 0.449 | 0.323 | 0.356 | 0.504 | 0.38 | 0.45 |
